Source: US12122815B2, “GIP receptor agonist peptide compounds and uses thereof” (TAKEDA PHARMACEUTICAL COMPANY LIMITED, priority 2018, dated 2024)

Columns and labels:
human GIPR = target: T1, human GIPR (Homo sapiens, UniProt P48546); experiment: Agonist activity on human GIPR, CRE-luciferase reporter assay with increase in intracellular cAMP as indicator (hGIPR/CRE-LUC/CHO-K1 cell); assay type: cell-based
T1 construct: FLAG (N)
T1 sequence (P48546 22-466): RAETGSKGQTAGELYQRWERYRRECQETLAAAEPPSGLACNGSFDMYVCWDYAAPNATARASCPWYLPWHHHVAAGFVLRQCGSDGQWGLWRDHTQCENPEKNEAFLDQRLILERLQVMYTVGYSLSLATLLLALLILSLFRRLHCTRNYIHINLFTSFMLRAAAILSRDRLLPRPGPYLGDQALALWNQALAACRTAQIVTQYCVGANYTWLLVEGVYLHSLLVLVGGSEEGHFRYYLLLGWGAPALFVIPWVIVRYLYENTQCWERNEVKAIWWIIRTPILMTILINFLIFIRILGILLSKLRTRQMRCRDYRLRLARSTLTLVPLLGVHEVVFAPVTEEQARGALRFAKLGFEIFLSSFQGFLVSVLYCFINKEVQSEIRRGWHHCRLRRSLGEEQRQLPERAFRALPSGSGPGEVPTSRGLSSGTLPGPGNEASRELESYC
Text: (§1) Evaluation of Agonist Activity on Human GIPR and Human GLP-1R with Increase in Intracellular cAMP Concentration as Indicator
(§2) A) Evaluation of Agonist Activity on Human GIPR and Human GLP-IR with Increase in Intracellular cAMP Concentration as Indicator
(1) Construction of Expression Plasmid of Human GIPR Gene. The Human GIPR Gene Having an Identical Sequence to Genebank Accession No. U39231 was Cloned into a pMSRα-Neo Vector to Prepare hGIPR/pMSRα-Neo.
(2) Construction of Reporter Plasmid Expressing Cell Luciferase Reporter Gene with a cAMP-Responsive Sequence Located Upstream was Transferred to a CHO-K1 Cell to Construct a CRE-LUC/CHO-K1 Cell.
(§3) (3) Construction of Reporter Plasmid
(§4) Four Copies of a cAMP responsive sequence and a Zeocin resistance gene were transferred to pGL3(R2.2)-Basic Vector (Promega) to construct a Cre-luc(Zeo) reporter plasmid.
(4) Transfer of Human GIPR Gene to CRE-LUC/CHO-K1 Cell and Obtaining of Expressing Cell the Plasmid hGIPR/pMSRα-Neo Obtained in (1) was Transferred to the CRELUC.
CHO-K1 cell obtained in (2) to obtain a transformant. Subsequently, the cell line inducing the luciferase expression, hGIPR/CRE-LUC/CHO-K1 cell, was selected from the obtained transformant by adding GIP.
25 μL each of the hGIPR/CRE-LUC/CHO-K1 cell was inoculated in a 384-well white plate (Corning) in such a way as to provide 5×10^3 cells/well and cultured in a HamF12 medium containing 10% fetal bovine serum, 100 U/mL penicillin, and 100 μg/mL streptomycin in a CO2 incubator at 37° C. overnight. 5 μL of a medium containing a test compound was added to the cells and incubated for 4 hours at the indicated concentration in a CO2 incubator at 37° C. […] 20 Minutes later, luciferase activity was measured using a plate reader Envision (PerkinElmer). The GIPR agonist activity was calculated with increase in intracellular cAMP concentration as the indicator when the luciferase activity in the presence of 10 nM of GIP was 100% and the luciferase activity in the case of adding DMSO instead of the test compound was 0%.

human GLP-1R = target: T2, human GLP-1R (Homo sapiens, UniProt P43220); experiment: Agonist activity on human GLP-1R, CRE-luciferase reporter assay with increase in intracellular cAMP as indicator (hGLP-1R/CRE-luc/CHO-K1 cell); assay type: cell-based
T2 construct: FLAG (N)
Text: as §1, §2, §3, §4
(5) Construction of Expression Plasmid of Human GLP-1R Gene
The human GLP-IR gene having an identical sequence to Genebank Accession No. NM_002062 was cloned into a pIRESneo3 vector to prepare hGLP-1/pIRESneo3.
(6) Transfer of Human GLP-1R Gene and Reporter Plasmid to CHO-K1 Cell and Obtaining of Expressing Cell
The Cre-luc (Zeo) obtained in (3) and the plasmid hGLP-1/pIRESneo3 obtained in (5) were transferred to the CHO-K1 cell to obtain a transformant. Subsequently, the cell line inducing the luciferase expression, hGLP-1R/CRE-luc/CHO-K1 cell, was selected from the obtained transformant by adding GLP-1.
25 μL each of the hGIPR/CRE-LUC/CHO-K1 cell was inoculated in a 384-well white plate (Corning) in such a way as to provide 5×10^3 cells/well and cultured in a HamF12 medium containing 10% fetal bovine serum, 100 U/mL penicillin, and 100 μg/mL streptomycin in a CO2 incubator at 37° C. overnight. 5 μL of a medium containing a test compound was added to the cells and incubated for 4 hours at the indicated concentration in a CO2 incubator at 37° C. Steady-Glo (Promega) was added in amounts of 30 μL and shaken under light shielding. 20 Minutes later, luciferase activity was measured using a plate reader Envision (PerkinElmer). The GIPR agonist activity was calculated with increase in intracellular cAMP concentration as the indicator when the luciferase activity in the presence of 10 nM of GIP was 100% and the luciferase activity in the case of adding DMSO instead of the test compound was 0%.
The GLP-IR agonist activity was assayed in the same manner as above using the hGLP-1R/CRE-luc/CHO-K1 cell.

T2 sequence (P43220 24-463): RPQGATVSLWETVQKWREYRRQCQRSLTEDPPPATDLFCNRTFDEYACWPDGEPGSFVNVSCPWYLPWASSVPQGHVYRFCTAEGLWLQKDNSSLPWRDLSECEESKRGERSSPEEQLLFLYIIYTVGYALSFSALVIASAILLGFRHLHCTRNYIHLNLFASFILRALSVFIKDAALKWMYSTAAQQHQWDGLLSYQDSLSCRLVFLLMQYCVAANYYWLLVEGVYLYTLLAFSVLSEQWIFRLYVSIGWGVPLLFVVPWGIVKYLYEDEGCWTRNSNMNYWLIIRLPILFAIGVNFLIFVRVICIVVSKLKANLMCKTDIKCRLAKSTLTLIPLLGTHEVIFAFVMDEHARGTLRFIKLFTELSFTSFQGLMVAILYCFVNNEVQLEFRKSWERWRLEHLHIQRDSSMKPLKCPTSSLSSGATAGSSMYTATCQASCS

Compound | EC50 (human GIPR) | EC50 (human GLP-1R)
CCCCCCCCCCCCCCCCCCCC(=O)NCC(=O)NCC(=O)NCC(=O)NCC(=O)NCCCC[C@H](NC(=O)[C@H](CO)NC(=O)[C@@H]1CCCN1C(=O)[C@@H]1CCCN1C(=O)[C@@H]1CCCN1C(=O)[C@H](C)NC(=O)CNC(=O)[C@H](CO)NC(=O)[C@H](CO)NC(=O)[C@@H]1CCCN1C(=O)CNC(=O)CNC(=O)[C@H](CCCCN)NC(=O)[C@H](CC(C)C)NC(=O)[C@H](CC(C)C)NC(=O)[C@H](Cc1c[nH]c2ccccc12)NC(=O)[C@H](CCCCN)NC(=O)[C@@H](NC(=O)[C@H](Cc1ccccc1)NC(=O)[C@H](CCC(=O)O)NC(=O)C(C)(C)NC(=O)[C@H](CCC(N)=O)NC(=O)[C@H](C)NC(=O)[C@H](CCC(N)=O)NC(=O)[C@H](CCCCN)NC(=O)[C@H](CC(=O)O)NC(=O)[C@H](CC(C)C)NC(=O)[C@H](CC(C)C)NC(=O)[C@@H](NC(=O)[C@H](CO)NC(=O)[C@H](Cc1ccc(O)cc1)NC(=O)[C@H](CC(=O)O)NC(=O)[C@H](CO)NC(=O)[C@H](CCCCN)NC(=O)[C@@H](NC(=O)[C@@H](NC(=O)CNC(=O)[C@H](CCC(=O)O)NC(=O)C(C)(C)NC(=O)[C@@H](N)Cc1ccc(O)cc1)[C@@H](C)O)C(C)C)[C@@H](C)CC)C(C)C)C(N)=O [Compound 8] | 0.04 nM | 180 nM
CCCCCCCCCCCCCCCC(=O)NCCCC[C@H](NC(=O)[C@H](CO)NC(=O)[C@@H]1CCCN1C(=O)[C@@H]1CCCN1C(=O)[C@@H]1CCCN1C(=O)[C@H](C)NC(=O)CNC(=O)[C@H](CO)NC(=O)[C@H](CO)NC(=O)[C@@H]1CCCN1C(=O)CNC(=O)CNC(=O)[C@H](CCCCN)NC(=O)[C@H](CC(C)C)NC(=O)[C@H](CC(C)C)NC(=O)[C@H](Cc1c[nH]c2ccccc12)NC(=O)[C@H](CCCCN)NC(=O)[C@@H](NC(=O)[C@H](Cc1ccccc1)NC(=O)[C@H](CCC(=O)O)NC(=O)C(C)(C)NC(=O)[C@H](CCC(N)=O)NC(=O)[C@H](C)NC(=O)[C@H](CCC(N)=O)NC(=O)[C@H](CCCCN)NC(=O)[C@H](CC(=O)O)NC(=O)[C@H](CC(C)C)NC(=O)[C@H](CC(C)C)NC(=O)[C@@H](NC(=O)[C@H](CO)NC(=O)[C@H](Cc1ccc(O)cc1)NC(=O)[C@H](CC(=O)O)NC(=O)[C@H](CO)NC(=O)[C@H](CCCCN)NC(=O)[C@@H](NC(=O)[C@@H](NC(=O)CNC(=O)[C@H](CCC(=O)O)NC(=O)C(C)(C)NC(=O)[C@@H](N)Cc1ccc(O)cc1)[C@@H](C)O)C(C)C)[C@@H](C)CC)C(C)C)C(N)=O [Compound 10] | 0.03 nM | 210 nM
CC[C@H](C)[C@H](NC(=O)[C@H](CO)NC(=O)[C@H](Cc1ccc(O)cc1)NC(=O)[C@H](CC(=O)O)NC(=O)[C@H](CO)NC(=O)[C@H](CCCCN)NC(=O)[C@@H](NC(=O)[C@@H](NC(=O)CNC(=O)[C@H](CCC(=O)O)NC(=O)C(C)(C)NC(=O)[C@@H](N)Cc1ccc(O)cc1)[C@@H](C)O)C(C)C)C(=O)N[C@@H](CC(C)C)C(=O)N[C@@H](CC(C)C)C(=O)N[C@@H](CC(=O)O)C(=O)N[C@@H](CCCCN)C(=O)N[C@@H](CCC(N)=O)C(=O)N[C@@H](C)C(=O)N[C@@H](CCC(N)=O)C(=O)NC(C)(C)C(=O)N[C@@H](CCC(=O)O)C(=O)N[C@@H](Cc1ccccc1)C(=O)N[C@H](C(=O)N[C@@H](CCCCN)C(=O)N[C@@H](Cc1c[nH]c2ccccc12)C(=O)N[C@@H](CC(C)C)C(=O)N[C@@H](CC(C)C)C(=O)N[C@@H](CCCCN)C(=O)NCC(=O)NCC(=O)N1CCC[C@H]1C(=O)N[C@@H](CO)C(=O)N[C@@H](CO)C(=O)NCC(=O)N[C@@H](C)C(=O)N1CCC[C@H]1C(=O)N1CCC[C@H]1C(=O)N1CCC[C@H]1C(=O)N[C@@H](CO)C(=O)N[C@@H](CCCCNC(=O)CCCCCCCCCCCCCCC(=O)O)C(N)=O)C(C)C [Compound 11] | 0.1 nM | 180 nM
CCCCCCCCCCCCCCCC(=O)NCCCC[C@H](NC(=O)[C@H](CO)NC(=O)[C@@H]1CCCN1C(=O)[C@@H]1CCCN1C(=O)[C@@H]1CCCN1C(=O)[C@H](C)NC(=O)CNC(=O)[C@H](CO)NC(=O)[C@H](CO)NC(=O)[C@@H]1CCCN1C(=O)[C@H](CCCCN)NC(=O)[C@H](CCC(N)=O)NC(=O)[C@H](C)NC(=O)[C@H](CC(C)C)NC(=O)[C@H](CC(C)C)NC(=O)[C@H](Cc1c[nH]c2ccccc12)NC(=O)[C@H](CC(N)=O)NC(=O)[C@@H](NC(=O)[C@H](Cc1ccccc1)NC(=O)[C@H](CC(=O)O)NC(=O)[C@H](CCC(N)=O)NC(=O)[C@H](CCC(N)=O)NC(=O)[C@H](Cc1c[nH]cn1)NC(=O)[C@@H](NC(=O)[C@H](CCCCN)NC(=O)[C@H](CC(=O)O)NC(=O)[C@H](CCSC)NC(=O)[C@H](C)NC(=O)[C@@H](NC(=O)[C@H](CO)NC(=O)[C@H](Cc1ccc(O)cc1)NC(=O)[C@H](CC(=O)O)NC(=O)[C@H](CO)NC(=O)[C@@H](NC(=O)[C@H](Cc1ccccc1)NC(=O)[C@@H](NC(=O)CNC(=O)[C@H](CCC(=O)O)NC(=O)[C@H](C)NC(=O)[C@@H](N)Cc1ccc(O)cc1)[C@@H](C)O)[C@@H](C)CC)[C@@H](C)CC)[C@@H](C)CC)C(C)C)C(N)=O [Compound 12] |  | 86 nM
